Columns and labels:
[1] = test system: velvetleaf (Abutilon theophrasti); test: Test A postemergence; format: in vivo; details: Abutilon theophrasti, post-emergence, 240 h, Postemergence; for pest or weed control at 125 g/ha: 125 g ai/ha, visual rating about 10 d after treatment, read-out: Velvetleaf plant response rating (0 to 100 scale); for pest or weed control at 500 g/ha: 500 g ai/ha, visual injury, 0 to 100 scale (0 no effect, 100 complete control), approx. 10 d, read-out: Plant response rating, Velvetleaf
Outline: (§1)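 Ratings of 0 (no effect) to 100 (complete control) come from visual comparison with untreated controls roughly 10 d after treatment. Test chemicals, formulated in a non-phytotoxic solvent mixture with surfactant, were applied either as a preemergence directed soil spray on seeded soil or postemergence to one- to two-leaf plants 2 to 10 cm tall.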

[2] = test system: crabgrass, large (Digitaria sanguinalis); test: Test A postemergence; format: in vivo; details: Digitaria sanguinalis, post-emergence, 240 h, Postemergence; for pest or weed control at 125 g/ha: 125 g ai/ha, visual rating about 10 d after treatment, read-out: Crabgrass, Large plant response rating (0 to 100 scale); for pest or weed control at 500 g/ha: 500 g ai/ha, visual injury, 0 to 100 scale (0 no effect, 100 complete control), approx. 10 d, read-out: Plant response rating, Crabgrass, Large
Outline: as §1

[3] = test system: velvetleaf (Abutilon theophrasti); test: Test A preemergence; format: in vivo; details: Abutilon theophrasti, pre-emergence, 240 h, 0 to 100 scale (0 no effect, 100 complete control), read-out: Plant response rating, Velvetleaf; for pest or weed control at 500 g/ha: 500 g ai/ha, preemergence; for pest or weed control at 125 g/ha: Preemergence, 125 g ai/ha
Outline: as §1

[4] = test system: morningglory (Ipomoea spp.); test: Test A preemergence; format: in vivo; details: Ipomoea, pre-emergence, 240 h, 0 to 100 scale (0 no effect, 100 complete control), read-out: Plant response rating, Morningglory; for pest or weed control at 500 g/ha: 500 g ai/ha, preemergence; for pest or weed control at 125 g/ha: Preemergence, 125 g ai/ha
Outline: as §1

[5] = test system: wheat (Triticum aestivum); test: Test A preemergence; format: in vivo; details: Triticum aestivum, pre-emergence, 240 h, 0 to 100 scale (0 no effect, 100 complete control), read-out: Plant response rating, Wheat; for plant injury at 500 g/ha: 500 g ai/ha, preemergence; for plant injury at 125 g/ha: Preemergence, 125 g ai/ha
Outline: as §1

[6] = test system: crabgrass, large (Digitaria sanguinalis); test: Test A preemergence; format: in vivo; details: Digitaria sanguinalis, pre-emergence, 240 h, 0 to 100 scale (0 no effect, 100 complete control), read-out: Plant response rating, Crabgrass, Large; for pest or weed control at 500 g/ha: 500 g ai/ha, preemergence; for pest or weed control at 125 g/ha: Preemergence, 125 g ai/ha
Outline: as §1

corn (Zea mays) = test: Test A preemergence; format: in vivo; details: Zea mays, pre-emergence, 240 h, 0 to 100 scale (0 no effect, 100 complete control); for Corn plant response rating (crop injury, 0 = no effect, 100 = complete kill) at 500 g/ha: 500 g ai/ha, preemergence; for Corn plant response rating (crop injury, 0 = no effect, 100 = complete kill) at 125 g/ha: Preemergence, 125 g ai/ha
Outline: as §1

Row | Compound | pest or weed control at 125 g/ha [1] [%] | pest or weed control at 500 g/ha [1] [%] | pest or weed control at 125 g/ha [2] [%] | pest or weed control at 500 g/ha [2] [%] | melting point [°C] | pest or weed control at 500 g/ha [3] [%] | pest or weed control at 125 g/ha [3] [%] | pest or weed control at 500 g/ha [4] [%] | pest or weed control at 125 g/ha [4] [%] | plant injury at 500 g/ha [5] [%] | plant injury at 125 g/ha [5] [%] | pest or weed control at 500 g/ha [6] [%] | pest or weed control at 125 g/ha [6] [%] | Corn plant response rating (crop injury, 0 = no effect, 100 = complete kill) at 500 g/ha (corn (Zea mays)) [%] | Corn plant response rating (crop injury, 0 = no effect, 100 = complete kill) at 125 g/ha (corn (Zea mays)) [%]
1 | N#Cc1ccc(NC(=O)C2C(=O)NCC2c2ccccc2)cc1 (stereo not drawn) [Compound 1355] | 0 | 0 | 0 | 0 | 186 to 188 | 0 | 0 | 0 | 0 | 0 | 0 | 0 | 0 | 0 | 0
2 | O=C1NCC(c2ccccc2)C1C(=O)Nc1cccnc1 (stereo not drawn) [Compound 1356] | 0 | 0 | 0 | 0 | – | 0 | 0 | 0 | 0 | 0 | 0 | 0 | 0 | 0 | 0
3 | O=C1NCC(c2ccccc2)C1C(=O)Nc1ccccc1Oc1ccccc1 (stereo not drawn) [Compound 1357] | 0 | 0 | 0 | 0 | – | 0 | 0 | 0 | 0 | 0 | 0 | 0 | 0 | 0 | 0
4 | O=C1NCC(c2ccccc2)C1C(=O)Nc1ccccc1 (stereo not drawn) [Compound 1358] | 0 | 0 | 0 | 30 | 180 to 181 | 0 | 0 | – | 0 | 50 | 0 | 80 | 20 | 0 | 0

Source: patent US12077503B2, “Substituted cyclic amides and their use as herbicides” (FMC CORPORATION, priority 2015, dated 2024)
